Results on 15 molecules are retold here after patent US20150011466A1, “APJ Receptor Compounds” (priority 2012, published 2015).

For this test, the target named is T1, APJ receptor (Homo sapiens, UniProt P35414).
T1 construct: expressed in transfected cells; host or cells: Human TRex cells (doxycycline-inducible)
T1 sequence (P35414 1-380): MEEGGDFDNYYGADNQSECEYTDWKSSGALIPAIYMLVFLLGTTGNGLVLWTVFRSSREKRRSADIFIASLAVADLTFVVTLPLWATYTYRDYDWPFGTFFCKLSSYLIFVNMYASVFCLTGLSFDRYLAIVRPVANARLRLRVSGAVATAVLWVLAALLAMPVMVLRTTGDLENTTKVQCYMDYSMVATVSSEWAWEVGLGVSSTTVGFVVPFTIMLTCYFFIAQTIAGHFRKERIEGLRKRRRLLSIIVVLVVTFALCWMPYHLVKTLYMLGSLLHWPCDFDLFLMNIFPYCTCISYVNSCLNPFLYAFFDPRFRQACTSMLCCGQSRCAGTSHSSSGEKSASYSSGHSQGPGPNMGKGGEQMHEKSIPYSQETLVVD
The test is described as follows: HTRF cAMP assay, inhibition of NKH477 stimulated cAMP in Human TRex cells expressing APJ upon doxycycline induction (APJ-hTREX). Particulars: for percent intrinsic activity at 0.3 µM: read-out: % IA (@ 300 nM). The class given is cell-based. From the text: HTRF (homogeneous time resolved fluorescence) is a technology developed by Cisbio Bioassays based on TR-FRET (time-resolved fluorescence resonance energy transfer). Cisbio Bioassays has developed a wide selection of HTRF-based assays compatible with whole cells, thereby enabling functional assays to run under more physiological conditions. The IP-One assays are competitive immunoassays using cryptate-labeled anti-IP1 monoclonal antibody and d2-labeled IP1. IP1 is a relatively stable downstream metabolite of IP3, and accumulates in cells following Gq receptor activation.
cAMP kits based on a competitive immunoassay using cryptate-labeled anti-cAMP antibody and d2-labeled cAMP were used to assay the effects of APJ compounds of the present invention. […] Cells are treated with […] doxycycline and seeded in all white 96 well plates @ 40 k/well overnight.
For orientation: In TR-FRET formats the signal depends on donor and acceptor labels being close together.

Where a SMILES comes first, the peptide text is derived from it. Where no end group is shown, it is not given here. [ ]: non-standard residue; d: D form. The star is where a group is joined. Palmitoyl = CCCCCCCCCCCCCCCC(=O)*; Aib = CC(C)(N)C(=O)O

In the case of `CCCCCCCCCCCCCCCC(=O)N[C@H](C(=O)N[C@H](C(=O)N[C@@H](Cc1ccccc1)C(=O)N[C@@H](CCCNC(=N)N)C(=O)N[C@@H](CCC(N)=O)C(=O)N[C@@H](CO)C(=O)N[C@@H](CCC(=O)O)C(=O)N[C@H](CCCCN)C(=O)N[C@@H](CCCNC(=N)N)C(=O)N[C@@H](CCCNC(=N)N)C(=O)N[C@@H](CO)C(=O)N[C@@H](C)C(=O)N[C@@H](CC(=O)O)C(=O)N[C@H](C(=O)N[C@@H](Cc1ccccc1)C(=O)N[C@H](C(N)=O)[C@@H](C)CC)[C@@H](C)CC)C(C)C)[C@@H](C)O` [Compound 23] (Palmitoyl-TVFRQSE[dK]RRSADIFI-NH2), the percent intrinsic activity at 0.3 µM was found to be 55%. For the molecule `CCCCCCCCCCCCCCCC(=O)N[C@H](C(=O)N[C@H](C(=O)N[C@@H](Cc1ccccc1)C(=O)N[C@@H](CCCNC(=N)N)C(=O)N[C@@H](CO)C(=O)N[C@@H](CC(=O)O)C(=O)N[C@@H](CCC(=O)O)C(=O)N[C@H](CCCCN)C(=O)N[C@@H](CCCNC(=N)N)C(=O)N[C@@H](CCCNC(=N)N)C(=O)N[C@@H](CO)C(=O)N[C@@H](C)C(=O)N[C@@H](CC(=O)O)C(=O)N[C@H](C(=O)N[C@@H](Cc1ccccc1)C(=O)N[C@H](C(N)=O)[C@@H](C)CC)[C@@H](C)CC)C(C)C)[C@@H](C)O` [Compound 37] (Palmitoyl-TVFRSDE[dK]RRSADIFI-NH2), the percent intrinsic activity at 0.3 µM was determined as 50%.

Regarding “TVFRSSEkRRSADFFI (TVFRSSE[dK]RRSADFFI; also: Pal-C(O)- tether, place not given here) [Compound 5]”, the “% IA (@ 300 nM)” value came to 81%. Turning to `CCCCCCCCCCCCCCCC(=O)N1CCC[C@H]1C(=O)N[C@H](C(=O)N[C@@H](Cc1ccccc1)C(=O)N[C@@H](CCCNC(=N)N)C(=O)N[C@@H](CO)C(=O)N[C@@H](CO)C(=O)N[C@@H](CCC(=O)O)C(=O)N[C@H](CCCCN)C(=O)N[C@@H](CCCNC(=N)N)C(=O)N[C@@H](CCCNC(=N)N)C(=O)N[C@@H](CO)C(=O)N[C@@H](C)C(=O)N[C@@H](CC(=O)O)C(=O)N[C@H](C(=O)N[C@@H](Cc1ccccc1)C(=O)N[C@H](C(N)=O)[C@@H](C)CC)[C@@H](C)CC)C(C)C` [Compound 42] (Palmitoyl-PVFRSSE[dK]RRSADIFI-NH2), the percent intrinsic activity at 0.3 µM was determined as 83%.

As for `CCCCCCCCCCCCCCCC(=O)N[C@H](C(=O)N[C@H](C(=O)N[C@@H](Cc1ccccc1)C(=O)N[C@@H](CCCNC(=N)N)C(=O)N[C@@H](CO)C(=O)NC(C)(C)C(=O)N[C@@H](CCC(=O)O)C(=O)N[C@H](CCCCN)C(=O)N[C@@H](CCCNC(=N)N)C(=O)N[C@@H](CCCNC(=N)N)C(=O)N[C@@H](CO)C(=O)N[C@@H](C)C(=O)N[C@@H](CC(=O)O)C(=O)N[C@H](C(=O)N[C@@H](Cc1ccccc1)C(=O)N[C@H](C(N)=O)[C@@H](C)CC)[C@@H](C)CC)C(C)C)[C@@H](C)O` [Compound 59] (Palmitoyl-TVFRS[Aib]E[dK]RRSADIFI-NH2), the percent intrinsic activity at 0.3 µM turned out to be 66%. On the same count and under the same terms, the figure for `CCCCCCCCCCCCCCCC(=O)N[C@H](C(=O)N[C@H](C(=O)N[C@@H](Cc1ccccc1)C(=O)N[C@@H](CCCNC(=N)N)C(=O)N[C@@H](CO)C(=O)N1CCC[C@H]1C(=O)N[C@@H](CCC(=O)O)C(=O)N[C@H](CCCCN)C(=O)N[C@@H](CCCNC(=N)N)C(=O)N[C@@H](CCCNC(=N)N)C(=O)N[C@@H](CO)C(=O)N[C@@H](C)C(=O)N[C@@H](CC(=O)O)C(=O)N[C@H](C(=O)N[C@@H](Cc1ccccc1)C(=O)N[C@H](C(N)=O)[C@@H](C)CC)[C@@H](C)CC)C(C)C)[C@@H](C)O` [Compound 46] (Palmitoyl-TVFRSPE[dK]RRSADIFI-NH2) is 77%; for `CCCCCCCCCCCCCCCC(=O)N[C@H](C(=O)N[C@H](C(=O)N[C@@H](Cc1ccccc1)C(=O)N[C@@H](CCCNC(=N)N)C(=O)N[C@@H](CO)C(=O)N[C@@H](CO)C(=O)NCC(=O)N[C@H](CCCCN)C(=O)N[C@@H](CCCNC(=N)N)C(=O)N[C@@H](CCCNC(=N)N)C(=O)N[C@@H](CO)C(=O)N[C@@H](C)C(=O)N[C@@H](CC(=O)O)C(=O)N[C@H](C(=O)N[C@@H](Cc1ccccc1)C(=O)N[C@H](C(N)=O)[C@@H](C)CC)[C@@H](C)CC)C(C)C)[C@@H](C)O` [Compound 74] (Palmitoyl-TVFRSSG[dK]RRSADIFI-NH2) it is 61%.

`CCCCCCCCCCCCCCCC(=O)N[C@H](C(=O)N[C@H](C(=O)N[C@@H](Cc1ccccc1)C(=O)N[C@@H](CCCNC(=N)N)C(=O)N[C@@H](CO)C(=O)N[C@@H](CO)C(=O)N[C@@H](CCC(=O)O)C(=O)N[C@H](CCCCN)C(=O)NCC(=O)N[C@@H](CCCNC(=N)N)C(=O)N[C@@H](CO)C(=O)N[C@@H](C)C(=O)N[C@@H](CC(=O)O)C(=O)N[C@H](C(=O)N[C@@H](Cc1ccccc1)C(=O)N[C@H](C(N)=O)[C@@H](C)CC)[C@@H](C)CC)C(C)C)[C@@H](C)O` [Compound 75] (Palmitoyl-TVFRSSE[dK]GRSADIFI-NH2): the percent intrinsic activity at 0.3 µM turned out to be 57%. The same measure, in the same setting: the same measure for `CCCCCCCCCCCCCCCC(=O)N[C@H](C(=O)N[C@H](C(=O)N[C@@H](Cc1ccccc1)C(=O)N[C@@H](CCCNC(=N)N)C(=O)N[C@@H](CO)C(=O)NCC(=O)N[C@@H](CCC(=O)O)C(=O)N[C@H](CCCCN)C(=O)N[C@@H](CCCNC(=N)N)C(=O)N[C@@H](CCCNC(=N)N)C(=O)N[C@@H](CO)C(=O)N[C@@H](C)C(=O)N[C@@H](CC(=O)O)C(=O)N[C@H](C(=O)N[C@@H](Cc1ccccc1)C(=O)N[C@H](C(N)=O)[C@@H](C)CC)[C@@H](C)CC)C(C)C)[C@@H](C)O` [Compound 73] (Palmitoyl-TVFRSGE[dK]RRSADIFI-NH2): 67%. Consider `CCCCCCCCCCCCCCCC(=O)N[C@H](C(=O)N[C@@H](CC(=O)O)C(=O)N[C@@H](Cc1ccccc1)C(=O)N[C@@H](CCCNC(=N)N)C(=O)N[C@@H](CO)C(=O)N[C@@H](CO)C(=O)N[C@@H](CCC(=O)O)C(=O)N[C@H](CCCCN)C(=O)N[C@@H](CCCNC(=N)N)C(=O)N[C@@H](CCCNC(=N)N)C(=O)N[C@@H](CO)C(=O)N[C@@H](C)C(=O)N[C@@H](CC(=O)O)C(=O)N[C@H](C(=O)N[C@@H](Cc1ccccc1)C(=O)N[C@H](C(N)=O)[C@@H](C)CC)[C@@H](C)CC)[C@@H](C)O` [Compound 34] (Palmitoyl-TDFRSSE[dK]RRSADIFI-NH2), for which the percent intrinsic activity at 0.3 µM was found to be 44%.

Take `CCCCCCCCCCCCCCCC(=O)N[C@H](C(=O)N[C@@H](Cc1ccccc1)C(=O)N[C@@H](Cc1ccccc1)C(=O)N[C@@H](CCCNC(=N)N)C(=O)N[C@@H](CO)C(=O)N[C@@H](CO)C(=O)N[C@@H](CCC(=O)O)C(=O)N[C@H](CCCCN)C(=O)N[C@@H](CCCNC(=N)N)C(=O)N[C@@H](CCCNC(=N)N)C(=O)N[C@@H](CO)C(=O)N[C@@H](C)C(=O)N[C@@H](CC(=O)O)C(=O)N[C@H](C(=O)N[C@@H](Cc1ccccc1)C(=O)N[C@H](C(N)=O)[C@@H](C)CC)[C@@H](C)CC)[C@@H](C)O` [Compound 2] (Palmitoyl-TFFRSSE[dK]RRSADIFI-NH2): the percent intrinsic activity at 0.3 µM was 59%.

`CCCCCCCCCCCCCCCC(=O)N[C@H](C(=O)N[C@H](C(=O)N[C@@H](Cc1ccccc1)C(=O)N[C@@H](CCCNC(=N)N)C(=O)N[C@@H](CO)C(=O)N[C@@H](CO)C(=O)N[C@@H](CCC(=O)O)C(=O)N[C@H](CCCCN)C(=O)N[C@@H](Cc1c[nH]cn1)C(=O)N[C@@H](CCCNC(=N)N)C(=O)N[C@@H](CO)C(=O)N[C@@H](C)C(=O)N[C@@H](CC(=O)O)C(=O)N[C@H](C(=O)N[C@@H](Cc1ccccc1)C(=O)N[C@H](C(N)=O)[C@@H](C)CC)[C@@H](C)CC)C(C)C)[C@@H](C)O` [Compound 13] (Palmitoyl-TVFRSSE[dK]HRSADIFI-NH2): the percent intrinsic activity at 0.3 µM amounted to 56%. Consider “TVFRSSEkPRSADIFI (TVFRSSE[dK]PRSADIFI; also: Pal-C(O)- tether, place not given here) [Compound 49]”, for which the “% IA (@ 300 nM)” value was determined as 49%. On to `CCCCCCCCCCCCCCCC(=O)N[C@H](C(=O)N[C@@H](Cc1c[nH]cn1)C(=O)N[C@@H](Cc1ccccc1)C(=O)N[C@@H](CCCNC(=N)N)C(=O)N[C@@H](CO)C(=O)N[C@@H](CO)C(=O)N[C@@H](CCC(=O)O)C(=O)N[C@H](CCCCN)C(=O)N[C@@H](CCCNC(=N)N)C(=O)N[C@@H](CCCNC(=N)N)C(=O)N[C@@H](CO)C(=O)N[C@@H](C)C(=O)N[C@@H](CC(=O)O)C(=O)N[C@H](C(=O)N[C@@H](Cc1ccccc1)C(=O)N[C@H](C(N)=O)[C@@H](C)CC)[C@@H](C)CC)[C@@H](C)O` [Compound 8] (Palmitoyl-THFRSSE[dK]RRSADIFI-NH2), for which the percent intrinsic activity at 0.3 µM amounted to 63%. Still for that read-out and setting: the same measure for `CCCCCCCCCCCCCCCC(=O)N[C@H](C(=O)N[C@H](C(=O)N[C@@H](Cc1ccccc1)C(=O)N[C@@H](CCCNC(=N)N)C(=O)N[C@@H](CO)C(=O)N[C@@H](CO)C(=O)N[C@@H](CCC(N)=O)C(=O)N[C@H](CCCCN)C(=O)N[C@@H](CCCNC(=N)N)C(=O)N[C@@H](CCCNC(=N)N)C(=O)N[C@@H](CO)C(=O)N[C@@H](C)C(=O)N[C@@H](CC(=O)O)C(=O)N[C@H](C(=O)N[C@@H](Cc1ccccc1)C(=O)N[C@H](C(N)=O)[C@@H](C)CC)[C@@H](C)CC)C(C)C)[C@@H](C)O` [Compound 25] (Palmitoyl-TVFRSSQ[dK]RRSADIFI-NH2): 45%.
